pIC50: −log10 of the molar value. Read-outs that look alike come from different tables or passages of the source.
Key:
[1] = test system: Klebsiella pneumoniae expressing VIM-1 (IHMA599644); test: Antibiotic potentiation activity: synergistic concentration (MITC95) with imipenem, OD600 growth; assay type: cell-based; conditions: for Klebsiella pneumoniae expressing VIM-1 (IHMA 599644) MITC95: concentration giving 95% inhibition of bacterial growth; for Klebsiella pneumoniae MITC95: Klebsiella pneumoniae expressing VIM-1 (IHMA599644), 95% growth inhibition
Outline: (§1)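 Overnight colonies (35 °C) were suspended in saline, diluted 1:100 into 1.1× CAMHB, and exposed to test compound with imipenem at 4 μg/ml (optionally 1 μg/ml) in assay. After 22–24 h at 35 °C, growth was read by absorbance.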

[2] = test system: Escherichia coli expressing NDM-1 (CLB30005); test: as above; assay type: cell-based; conditions: for Escherichia coli expressing NDM-1 (CLB 30005) MITC95: concentration giving 95% inhibition of bacterial growth; for Escherichia coli MITC95: Escherichia coli expressing NDM-1 (CLB30005), 95% growth inhibition
Outline: as §1

[3] = test system: Serratia marcescens expressing IMP-1 (CL5741); test: as above; assay type: cell-based; conditions: for Serratia marcescens expressing IMP-1 (CL5741) MITC95: concentration giving 95% inhibition of bacterial growth; for Serratia marcescens MITC95: Serratia marcescens expressing IMP-1 (CL5741), 95% growth inhibition
Outline: as §1

NDM-1 = NDM-1 (Klebsiella pneumoniae, UniProt C7C422); test: biochemical; assay type: biochemical; conditions: read-out: NDM-1 IC50
VIM-1 = VIM-1 (Pseudomonas aeruginosa (strain ATCC 15692 / DSM 22644 / CIP 104116 / JCM 14847 / LMG 12228 / 1C / PRS 101 / PAO1), UniProt A0A0F7KYQ8); test: Enzyme activity: determination of IC50, fluorescence assay with CCF2-FA substrate (VIM-1); assay type: biochemical
IMP-1 = IMP-1 (Serratia marcescens, UniProt P52699); test: biochemical; assay type: biochemical
[4] = fluorescence assay with CCF2-FA substrate
[5] = fluorescence assay with CCF2-FA substrate, read-out: VIM-1 IC50
[6] = fluorescence assay with CCF2-FA substrate, read-out: IMP-1 IC50
[7] = NDM-1 enzyme, CCF2-FA fluorescence assay
[8] = IMP-1 enzyme, CCF2-FA fluorescence assay, read-out: IMP-1 IC50
[9] = VIM-1 enzyme, CCF2-FA fluorescence assay, read-out: VIM-1 IC50

Sequence of NDM-1 (C7C422 whole entry, looked up, species assumed): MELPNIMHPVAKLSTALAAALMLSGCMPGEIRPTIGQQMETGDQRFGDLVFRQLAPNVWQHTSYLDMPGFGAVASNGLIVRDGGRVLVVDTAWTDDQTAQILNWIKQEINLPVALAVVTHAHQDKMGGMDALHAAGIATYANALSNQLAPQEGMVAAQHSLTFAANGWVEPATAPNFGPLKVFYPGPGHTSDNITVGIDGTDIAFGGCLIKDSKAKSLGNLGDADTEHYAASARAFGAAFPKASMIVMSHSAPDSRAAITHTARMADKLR
Sequence of IMP-1 (P52699 whole entry, looked up): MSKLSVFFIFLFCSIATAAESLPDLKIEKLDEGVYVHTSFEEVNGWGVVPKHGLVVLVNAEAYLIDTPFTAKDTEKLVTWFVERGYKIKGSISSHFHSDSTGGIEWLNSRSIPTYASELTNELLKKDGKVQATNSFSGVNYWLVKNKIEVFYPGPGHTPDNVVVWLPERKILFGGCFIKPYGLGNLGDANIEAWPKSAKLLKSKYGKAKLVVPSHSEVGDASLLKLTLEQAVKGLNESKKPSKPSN

Row | SMILES | Klebsiella pneumoniae expressing VIM-1 (IHMA 599644) MITC95 [1] [µM] | Escherichia coli expressing NDM-1 (CLB 30005) MITC95 [2] [µM] | Serratia marcescens expressing IMP-1 (CL5741) MITC95 [3] [µM] | pIC50 (NDM-1; [4]) | pIC50 (VIM-1; [5]) | pIC50 (IMP-1; [6]) | pIC50 (VIM-1; VIM-1 IC50, fluorescence assay with CCF2-FA substrate) | pIC50 (IMP-1) | Klebsiella pneumoniae MITC95 [1] [µM] | Escherichia coli MITC95 [2] [µM] | Serratia marcescens MITC95 [3] [µM] | pIC50 (NDM-1; [7]) | pIC50 (VIM-1; VIM-1 IC50, VIM-1 enzyme, CCF2-FA fluorescence assay) | pIC50 (IMP-1; [8]) | pIC50 (VIM-1; [9])
1 | NS(=O)(=O)c1cccc(-c2ccc(C(O)C(F)(F)F)cc2)c1-c1nn[nH]n1 (stereo not drawn) [Example 3, 2(2H-tetrazol-5-yl)4′-(2,2,2-trifluoro-1-hydroxyethyl)biphenyl-3-sulfonamide] | 200 | 0.7813 | 1.563 | 8.83 | 7.40 | 8.05 |  |  |  |  |  |  |  |  | 
2 | NS(=O)(=O)c1cccc(-c2csc3ccccc23)c1-c1nn[nH]n1 [Example 96, 3-(1-benzothiophen-3-yl)-2-(2H-tetrazol-5-yl)benzenesulfonamide] | 25 | 1.758 | 15.63 | 8.88 | 8.45 | 6.96 |  |  |  |  |  |  |  |  | 
3 | NS(=O)(=O)c1ccc(-c2cccc(S(N)(=O)=O)c2-c2nn[nH]n2)cc1 [Example 61, 2-(2H-tetrazol-5-yl)biphenyl-3,4′-disulfonamide] | 25 | 0.5859 | 6.25 | 8.20 |  | 7.24 | 7.21 |  |  |  |  |  |  |  | 
4 | CC(C)(C)OC(=O)N1CCN(c2ccc(-c3cccc(S(N)(=O)=O)c3-c3nn[nH]n3)cc2)CC1 [Example 7, tert-butyl 4-[3′-sulfamoyl-2′-(2H-tetrazol-5-yl)biphenyl-4-yl]piperazine-1-carboxylate] | >200 | 6.25 | 12.5 | 8.43 | 6.31 |  |  | 7.53 |  |  |  |  |  |  | 
5 | Cc1ccc(-c2cccc(S(N)(=O)=O)c2-c2nnn[nH]2)cn1 [Example 299, 3-(6-methylpyridin-3-yl)-2-(1H-tetrazol-5-yl)benzenesulfonamide] |  |  |  |  |  |  |  |  | 37.5 | 0.1953 | 18.75 | 7.93 | 6.96 | 6.35 | 
6 | NC(=O)c1ccc(-c2ccnc(S(N)(=O)=O)c2-c2nnn[nH]2)cc1 [Example 184, 4-(2-Sulfamoyl-3-(1H-tetrazol-5-yl)pyridin-4-yl)benzamide] | 25 | 0.5859 | 37.5 | 7.17 | 6.79 | 6.22 |  |  |  |  |  |  |  |  | 
7 | Cn1nccc1-c1cccc(S(N)(=O)=O)c1-c1nn[nH]n1 [Example 49, 3-(1-methyl-1H-pyrazol-5-yl)-2-(2H-tetrazol-5-yl)benzenesulfonamide] | 12.5 | 0.5859 | 150 | 7.67 | 7.21 | 5.39 |  |  |  |  |  |  |  |  | 
8 | NS(=O)(=O)c1cccc(C2CCCN(C(=O)C3CC3)C2)c1-c1nn[nH]n1 (stereo not drawn) [Example 177, 3-(1-(cyclopropanecarbonyl)piperidin-3-yl)-2-(2H-tetrazol-5-yl)benzenesulfonamide] | >200 | 6.25 | 37.5 | 7.89 | 6.13 | 6.18 |  |  |  |  |  |  |  |  | 
9 | CNC(=O)c1ccc(-c2cccc(S(N)(=O)=O)c2-c2nn[nH]n2)cc1 [Example 13, N-methyl-3′-sulfamoyl-2′-(2H-tetrazol-5-yl)biphenyl-4-carboxamide] | 200 | 1.563 | 200 | 8.26 | 6.65 | 6.76 |  |  |  |  |  |  |  |  | 
10 | CS(=O)(=O)CCn1cc(-c2cccc(S(N)(=O)=O)c2-c2nn[nH]n2)cn1 [Example 54, 3-{1-[2-(methylsulfonyl)ethyl]-1H-pyrazol-4-yl}-2-(2H-tetrazol-5-yl)benzenesulfonamide] | >200 | 2.344 | 18.75 | 7.37 | 6.03 | 6.69 |  |  |  |  |  |  |  |  | 
11 | Cc1ccc(-c2cc(-c3cnn(C)c3)cc(S(N)(=O)=O)c2-c2nn[nH]n2)cc1 [Example 291, 4′-methyl-5-(1-methyl-1H-pyrazol-4-yl)-2-(2H-tetrazol-5-yl)-[1,1′-biphenyl]-3-sulfonamide] |  |  |  |  |  |  |  |  | >200 | 3.906 | 4.688 | 8.83 |  | 7.01 | 6.65
12 | NS(=O)(=O)c1nccc(-c2ccc3c(c2)CNC3=O)c1-c1nnn[nH]1 [Example 192, 4-(1-oxoisoindolin-5-yl)-3-(1H-tetrazol-5-yl)pyridine-2-sulfonamide] | 50 | 1.953 | 50 | 7.44 | 7.01 | 6.36 |  |  |  |  |  |  |  |  | 
13 | NS(=O)(=O)c1cccc(-c2ccc(N3CCOCC3)nc2)c1-c1nn[nH]n1 [Example 323, 3-(6-morpholinopyridin-3-yl)-2-(2H-tetrazol-5-yl)benzenesulfonamide] |  |  |  |  |  |  |  |  | 200 | 2.344 | 12.5 | 8.11 |  | 7.15 | 6.82
14 | COC(=O)N1CCC(c2ccc(-c3cccc(S(N)(=O)=O)c3-c3nnn[nH]3)cc2)CC1 [Example 28, methyl 4-[3′-sulfamoyl-2′-(1H-tetrazol-5-yl)biphenyl-4-yl]piperidine-1-carboxylate] | >200 | 12.5 | 12.5 | 9.01 | 7.57 | 8.43 |  |  |  |  |  |  |  |  | 
15 | NS(=O)(=O)c1cccc(-c2ccc3ncccc3c2)c1-c1nn[nH]n1 [Example 66, 3-quinolin-6-yl-2-(2H-tetrazol-5-yl)benzenesulfonamide] | 75 | 0.7813 | 18.75 | 8.96 | 7.54 | 6.85 |  |  |  |  |  |  |  |  | 
16 | Cc1nc2ccccc2n1Cc1ccc(-c2cccc(S(N)(=O)=O)c2-c2nnn[nH]2)cc1 [Example 304, 4′-((2-methyl-1H-benzo[d]imidazol-1-yl)methyl)-2-(1H-tetrazol-5-yl)-[1,1′-biphenyl]-3-sulfonamide] |  |  |  |  |  |  |  |  | >200 | 6.25 | 7.031 | 7.53 |  | 7.30 | 6.99
17 | COc1ccc(S(N)(=O)=O)c(-c2nn[nH]n2)c1 [Example 253, 4-Methoxy-2-(2H-tetrazol-5-yl)benzenesulfonamide] |  |  |  |  |  |  |  |  | >200 | 3.125 | >200 | 6.36 |  | 4.33 | 3.77
18 | NS(=O)(=O)c1cccc(-c2cnn3ncccc23)c1-c1nn[nH]n1 [Example 105, 3-pyrazolo[1,5-b]pyridazin-3-yl-2-(2H-tetrazol-5-yl)benzenesulfonamide] | 18.75 | 0.9766 | 31.25 | 7.84 | 7.15 | 6.43 |  |  |  |  |  |  |  |  | 
19 | CN(C)S(=O)(=O)c1ccc(-c2cccc(S(N)(=O)=O)c2-c2nn[nH]n2)cc1 [Example 59, N~4~′,N~4~′-dimethyl-2-(2H-tetrazol-5-yl)biphenyl-3,4′-disulfonamide] | 200 | 2.344 | 6.25 | 8.36 | 7.02 | 7.44 |  |  |  |  |  |  |  |  | 
20 | CN(c1ncc(-c2cccc(S(N)(=O)=O)c2-c2nn[nH]n2)cn1)S(C)(=O)=O [Example 55, 3-{2-[methyl(methylsulfonyl)amino]pyrimidin-5-yl}-2-(2H-tetrazol-5-yl)benzenesulfonamide] | 200 | 1.953 | 12.5 | 8.46 | 6.84 | 7.28 |  |  |  |  |  |  |  |  | 

From patent publication US9708336B2, “Metallo-beta-lactamase inhibitors” (priority 2014, dated 2017)
